Experimental data taken from US20070122341A1, “Benzylideneaniline derivatives and their radioisotope labeled compounds for binding and imaging of beta-amyloid plaques” (SEOUL NATIONAL UNIVERSITY INDUSTRY FOUNDATION, priority 2005, published 2007).
Where “and” joins values, the source holds several entries; their conditions need not be identical. Identical values can stand only once.

Columns and labels:
Aβ1-40 aggregates = biological target: T1, Aβ1-40 aggregates (Homo sapiens, UniProt P05067); experiment: In vitro binding assay with Aβ1-40 aggregates, inhibition of [125I]3'-I-BTA-1 binding; conditions: for affinity to Aβ1-40 (in words): conclusion from Ki values of Table 2; for Ki: unlabeled compounds, Aβ1-40 aggregates 20 nM, [125I]3'-I-BTA-1 0.04 nM, 3 hr room temperature, Ki calculated from IC50
T1 construct: purchased Sigma
Description: Aggregated peptides were prepared using the solid form of peptides Aβ1-40 (purchased from Sigma) by a literature method (Klunk, W. E.; Wang, Y.; Huang, G-F.; Debnath, M. L.; Holt D. P.; Mathis, C. A. Uncharged thioflavin-T derivatives bind to amyloid-beta protein with high affinity and readily enter the brain. Life Sci. 2001, 69(13), […]). The aggregated Aβ1-40 peptide was aliquoted and stored at −70° C. Binding studies were performed according to the procedure described in the literature with some modifications (Zhuang, Z.-P.; Kung, M.-P.; Wilson, A.; Lee, C.-W.; Plossl, K.; Hou, C.; Holtzman, D. M.; Kung, H. F.; Structure-activity relationship of imidazo[1,2-a]pyridines as ligands for detecting β-amyloid plaques in the brain. J. Med. Chem. 2003; 46(2), 237-243). The Ki values of benzylideneaniline derivatives were evaluated with Aβ1-40 aggregates.
The reaction mixtures containing 100 μL of Aβ^1-40 aggregates (20 nM in the final mixture), 100 μL of benzylideneaniline derivatives (10^−5-10^−10 M in 50% ethanol), 100 μL of [^125I]3′-I-BTA-1 in 50% ethanol (0.04 nM in the final mixture), and 700 μL of phosphate buffered saline (pH=7.2) were incubated for 3 hr at room temperature, filtered through Whatman GF/B glass filters and washed twice with 3 mL of 10% EtOH. The filters were counted in a gamma-counter. Nonspecific binding was determined by reacting in the presence of 10 μM stilbene.

[1] = Biodistribution in normal mice; type: in vivo; conditions: 18F-labeled compounds, tail vein injection, ICR male mice; ratio of brain uptake (% ID/g) at 2 min over 30 min
Description: Biodistribution study of the ^18F-labeled compounds of Example 7 was performed with ICR male mice (weight range 27-28 g). 0.1 mL of a saline solution containing each ^18F-labeled benzylideneaniline compound A, B, C, D, E or F (37-74 kBq) was injected through the tail vein. The mice were sacrificed by decapitation at 2 min and 30 min time points post injection. The organs of interest, including blood, muscle, fat, heart, lung, liver, spleen, stomach, intestine, brain and bone, were separated and weighed, and the remaining radioactivity was counted with a NaI well counter.

T1 sequence (P05067 672-711): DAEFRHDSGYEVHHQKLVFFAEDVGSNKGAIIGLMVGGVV

| Structure (SMILES) | affinity to Aβ1-40 (in words) (Aβ1-40 aggregates) | Ki (Aβ1-40 aggregates) [nM] | Brain uptake ratio [1] | melting point [°C] |
| --- | --- | --- | --- | --- |
| CNc1ccc(/N=C/c2ccc(F)cc2)cc1 [B, N-(4-fluorobenzylidene)-N′-methylbenzene-1,4-diamine] | have affinity to Aβ1-40 | 1040 | 5.4 ± 0.5 | 106 to 107 |
| CN(C)c1ccc(/N=C/c2ccc(F)cc2)cc1 [C, N-(4-fluorobenzylidene)-N′,N′-dimethylbenzene-1,4-diamine] | have affinity to Aβ1-40 | 149 | 2.9 ± 0.5 | 191 to 192 |
| O=C(O)c1cc(/N=C/c2ccc(F)cc2)ccc1O [F, 5-[(4-fluorobenzylidene)amino]-2-hydroxybenzoic acid] |  | > 10000 | 11.0 ± 2.0 |  |

Further lines, results first:

| affinity to Aβ1-40 (in words) (Aβ1-40 aggregates) | Ki (Aβ1-40 aggregates) [nM] | Brain uptake ratio [1] | melting point [°C] | Structure (SMILES) |
| --- | --- | --- | --- | --- |
| have affinity to Aβ1-40 | 304 | 8.7 ± 1.7 | 169 to 170 | Nc1ccc(/N=C/c2ccc(F)cc2)cc1 [Compound A, N-(4-fluorobenzylidene)benzene-1,4-diamine] |
| low binging affinity | > 10000 | 24.3 and 24.3 ± 4.6 | 148 to 149 | Oc1ccc(/N=C/c2ccc(F)cc2)cc1 [D] |
|  | > 10000 | 4.2 ± 0.9 | 92 to 93 | COc1ccc(/N=C/c2ccc(F)cc2)cc1 [E, (4-fluorobenzylidene)-(4-methoxyphenyl)amine] |
